Measurements as given in ChEMBL document CHEMBL1140379, “Extraction and visualization of potential pharmacophore points using support vector machines: application to ligand-based virtual screening for COX-2 inhibitors” (J Med Chem, 2005).
pIC50: −log10 of the molar value.

Target: T1, Prostaglandin G/H synthase 2 (Homo sapiens, UniProt P35354)
T1 sequence (P35354 whole entry): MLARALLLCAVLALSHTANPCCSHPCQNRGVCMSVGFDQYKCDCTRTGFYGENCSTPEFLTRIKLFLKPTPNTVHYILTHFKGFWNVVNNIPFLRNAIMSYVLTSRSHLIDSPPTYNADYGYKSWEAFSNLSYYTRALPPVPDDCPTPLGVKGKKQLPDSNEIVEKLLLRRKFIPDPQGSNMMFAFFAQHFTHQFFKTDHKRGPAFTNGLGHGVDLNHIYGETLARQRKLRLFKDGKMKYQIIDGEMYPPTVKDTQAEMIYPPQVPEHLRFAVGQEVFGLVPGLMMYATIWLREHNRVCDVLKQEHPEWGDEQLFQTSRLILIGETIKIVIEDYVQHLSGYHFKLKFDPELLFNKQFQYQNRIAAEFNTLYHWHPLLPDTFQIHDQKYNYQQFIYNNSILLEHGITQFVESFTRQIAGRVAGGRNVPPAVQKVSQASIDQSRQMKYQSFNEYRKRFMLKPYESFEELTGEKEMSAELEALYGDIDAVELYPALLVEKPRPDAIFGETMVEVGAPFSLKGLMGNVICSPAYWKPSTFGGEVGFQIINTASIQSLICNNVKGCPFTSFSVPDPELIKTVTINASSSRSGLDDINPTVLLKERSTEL
Test: Inhibitory concentration against COX-2 upon incubation for 15 minutes at 37 degree C

Row | SMILES | pIC50
1 | COc1ccccc1-n1c(-c2ccc(S(N)(=O)=O)cc2)nc2ccccc21 | 5.10
2 | NS(=O)(=O)c1ccc(-c2nc3ccccc3n2-c2ccc(Cl)cc2)cc1 | 6.70
